Test results: patent publication US20170233414A1, “DERIVATIVES OF BODIPY” (OREGON HEALTH & SCIENCE UNIVERSITY, priority 2016, published 2017)
Where two headings read alike, the source gives them in different places.

Experiments:
[1] = Fluorescence properties and quantum yield measurements of the BAA library; type: physicochemical; parameters: FWHM (full-width-at half max): unit not given here; conditions: anhydrous DMSO; for λmax ABS / λmax EM: polystyrene 96 well plate; for FWHM (full-width-at half max): emission; for φfl (quantum yield): relative to reference fluorophore at three concentrations
Procedure, shortened: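 Absorbance maximum, emission maximum, FWHM and quantum yield measured in anhydrous DMSO on a microplate reader. Quantum yields from integrated emission vs absorbance gradients at three concentrations against fluorescein (0.1 M NaOH; ex 470 nm), rhodamine B (ethanol; ex 525 nm) or cresyl violet (methanol; ex 570 nm), chosen by absorbance maximum.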

[2] = cited from earlier work

Molecule	Stokes Shift [1] [nm]	λmax ABS [1] [nm]	λmax EM [1] [nm]	FWHM (full-width-at half max) [1]	φfl (quantum yield) [1]	φfl (quantum yield) ([2]; in ethanol, reference for max absorbance between 511-595 nm)	φfl (quantum yield) ([2]; in methanol, reference for max absorbance above 595 nm)
COc1ccc(C=O)cc1OCCOc1cc(C=CC2=[N+]3C(=Cc4ccc(CCC(=O)O)n4[B-]3(F)F)C(C)=C2)ccc1OC [BAA-74a]	18	584	602	59	0.15		
COc1ccc(C=O)cc1OCCOc1cc(C=CC2=[N+]3C(=Cc4ccc(C(=Cc5ccc(OC)c(OCCOc6cc(C=O)ccc6OC)c5)CC(=O)O)n4[B-]3(F)F)C(C)=C2)ccc1OC [BAA-74b]	17	583	600	51	0.22		
CC1=CC(C=Cc2ccc(N(CCC#N)CCC#N)cc2)=[N+]2C1=Cc1ccc(CCC(=O)O)n1[B-]2(F)F [BAA-75a]	49	614	663	91	0.08		
CCN(CC)c1ccc2c(-c3ccccc3C(=O)O)c3ccc(=[N+](CC)CC)cc-3oc2c1.[Cl-] [Rhodamine B]						0.70	
Cresyl violet							0.54

Second part, led by results:

Stokes Shift [1] [nm]	λmax ABS [1] [nm]	λmax EM [1] [nm]	FWHM (full-width-at half max) [1]	φfl (quantum yield) [1]	Molecule	φfl (quantum yield) ([2]; in ethanol, reference for max absorbance between 511-595 nm)	φfl (quantum yield) ([2]; in methanol, reference for max absorbance above 595 nm)
55	605	660	91	0.18	CC1=CC(C=Cc2ccc(N(CCC#N)CCC#N)cc2)=[N+]2C1=Cc1ccc(C(=Cc3ccc(N(CCC#N)CCC#N)cc3)CC(=O)O)n1[B-]2(F)F [BAA-75b]		
31	603	634	61	0.50	CC1=CC(C=Cc2c[nH]c3c(OCc4ccccc4)cccc23)=[N+]2C1=Cc1ccc(CCC(=O)O)n1[B-]2(F)F [BAA-77a]		
11	581	592	46	0.19	CC1=CC(C=Cc2ccc(OCc3ccc([N+](=O)[O-])cc3)cc2)=[N+]2C1=Cc1ccc(CCC(=O)O)n1[B-]2(F)F [BAA-78a]		
14	579	593	39	0.37	CC1=CC(C=Cc2ccc(OCc3ccc([N+](=O)[O-])cc3)cc2)=[N+]2C1=Cc1ccc(C(=Cc3ccc(OCc4ccc([N+](=O)[O-])cc4)cc3)CC(=O)O)n1[B-]2(F)F [BAA-78b]		
